Earlier results as cited in patent US20130121964A1, “Pharmacogenomic and Response-Guided Treatment of Infectious Disease Using Yeast-Based Immunotherapy” (GLOBEIMMUNE, INC., priority 2010, published 2013).

Columns and labels:
[1] = in vivo

## NC(=O)c1ncn([C@@H]2O[C@H](CO)[C@@H](O)[C@H]2O)n1 [Ribavirin, 1-(beta)-D-ribofuranosyl-1H-1,2,4-triazole-3-carboxamide]
[1]
  patients with hemolytic anemia: 20-30%
Anhydrous alcohol
  solubility in anhydrous alcohol: slightly soluble
water
  solubility in water: freely soluble
